According to patent US12637448B2, “Tricyclic compounds and use thereof” (HELIOEAST PHARMACEUTICAL CO., LTD, priority 2020, dated 2026):

Legend:
[1] = Pharmacokinetic evaluation in CD-1 mice (intravenous injection and oral administration); assay type: in vivo; conditions: mouse, male, plasma
Method: Test Embodiment 3: Pharmacokinetic Evaluation of Compound in Mice
Experimental Objective: To Test the Pharmacokinetics of the Compound in CD-1 Mice
CD-1 mice (male, 20-40 g, 6-10 weeks old, Shanghai BK)
(§1) The standard protocol was used to test the pharmacokinetic characteristics of rodents after intravenous injection and oral administration of the compound. In the experiment, the candidate compound was prepared into a clear solution, and administrated to two mice by single intravenous injection and oral administration. The vehicle for intravenous injection was a 5:95 DMSO and 10% hydroxypropyl β-cyclodextrin aqueous solution, and the vehicle for oral administration was a 0.5% w/v methylcellulose and 0.2% w/v tween 80 aqueous solution. Whole blood samples within 24 hours were collected, centrifuged at 3200 g for 10 minutes, and the supernatant was separated to obtain plasma samples. Four times the volume of acetonitrile solution containing internal standard was added thereto to precipitate protein. The mixture was centrifuged, and the supernatant was taken, and an equal volume of water was added thereto. Then the mixture was centrifuged and the supernatant was taken for injection. The blood drug concentration was quantitatively analyzed by LC-MS/MS analysis method, and pharmacokinetic parameters, such as peak concentration, tissue distribution, clearance rate, half-life, area under the drug-time curve and bioavailability, were calculated.

[2] = Pharmacokinetic evaluation in SD rats (intravenous injection and oral administration); assay type: in vivo; conditions: Sprague-Dawley, plasma, SD rat, male
Method: Test Embodiment 2: Pharmacokinetic Evaluation of Compound in Rats
Experimental Objective: To Test the Pharmacokinetics of the Compound in SD Rats
Sprague Dawley rat (male, 200-300 g, 7-9 weeks old, Shanghai SLAC)
as §1, with “A standard” for “The standard”, “to rats” for “to two mice”, “at 3000” for “at 3200”, “for 15” for “for 10”, “concentration, clearance rate,” for “concentration,”, “distribution,” for “distribution, clearance rate,”

S1PR1 = target: T1, S1PR1 (Homo sapiens, UniProt P21453); experiment: In vitro S1PR1 agonistic activity (PathHunter cell line, chemiluminescence); assay type: cell-based; conditions: for Emax: % activity relative to maximum control ligand; for EC50: agonist mode, 90-180 minutes at 37° C.
T1 construct: expressed in transfected cells
T1 sequence (P21453 whole entry): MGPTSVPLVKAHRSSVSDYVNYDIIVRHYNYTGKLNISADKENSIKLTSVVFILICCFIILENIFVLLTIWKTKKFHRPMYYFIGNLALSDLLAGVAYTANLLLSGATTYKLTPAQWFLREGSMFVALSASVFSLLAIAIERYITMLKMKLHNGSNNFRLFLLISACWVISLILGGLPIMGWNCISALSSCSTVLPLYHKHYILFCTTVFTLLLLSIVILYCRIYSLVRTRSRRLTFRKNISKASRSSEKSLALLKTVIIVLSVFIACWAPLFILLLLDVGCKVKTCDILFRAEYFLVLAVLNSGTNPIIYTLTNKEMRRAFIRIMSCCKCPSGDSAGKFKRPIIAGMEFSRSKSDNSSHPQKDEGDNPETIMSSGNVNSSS
Method: Test Embodiment 1: In Vitro Evaluation of the Agonistic Activity of the Compounds of the Present Disclosure on S1PR1
Experimental Objective: To Detect the Agonistic Activity of Compounds on S1PR1
• 1. A PathHunter cell line was thawed according to standard procedures; • 2. the cells were inoculated in a 20 μL 384-well microplate and incubated at 37° C. for appropriate time. II. Agonist • 1. For agonist determination, cells were incubated with samples to be tested to induce a reaction; • 2. a storage solution to be tested was 5-fold diluted into a buffer; • 3. 5 μL of the 5-fold dilution was added to the cells and incubated at 37° C. for 90-180 minutes. The vehicle concentration was 1%. III. Signal Detection • 1. 12.5 μL or 15 μL of PathHunter detection reagent at a volume ratio of 50% was added at a time, and then incubated at room temperature for 1 hour to generate a detection signal; • 2. the microplate was read with a PerkinElmer Envision™ instrument for chemiluminescent signal detection. IV. Data Analysis • 1. Activity analysis of the compound was carried out by using CBIS data analysis kit (ChemInnovation, CA); • 2. Calculation formula: % activity=100%×(average test sample RLU−average vehicle RLU)/(average maximum control ligand−average vehicle RLU)

SMILES | Emax (S1PR1) [%] | EC50 (S1PR1) [nM] | further results
CC(C)Oc1ncc(-c2nc(-c3cccc4c3CCC43CC(=O)N(CCO)C3)no2)cc1C#N (centres unmarked) [Compound 1] | 99.3 | 0.134 | Cmax ([1]; intravenous 0.5 mg/kg / oral 2.0 mg/kg, read-out: Peak concentration Cmax): 2830 ng/mL; AUC(0-t) ([1]; PO 2.0 mg/kg, read-out: Area under the drug-time curve AUC0-last PO): 21.3 µM·h; half-life ([1]; PO 2.0 mg/kg, read-out: Half-life T1/2 (PO) (converted)): 3.5 h; clearance ([1]; intravenous 0.5 mg/kg / oral 2.0 mg/kg, read-out: Clearance rate CL): 3.42 mL/min/kg; Vd ([1]; intravenous 0.5 mg/kg / oral 2.0 mg/kg, read-out: Tissue distribution Vdss): 0.902 L/kg; bioavailability ([1]; intravenous 0.5 mg/kg, oral 2.0 mg/kg, read-out: Bioavailability F): 100%; AUC(0-t) ([2]; PO 3.0 mg/kg, read-out: Area under the drug-time curve AUC0-last PO): 35.5 µM·h; half-life ([2]; PO 3.0 mg/kg, read-out: Half-life T1/2 (PO) (converted)): 7.22 h; clearance ([2]; intravenous 1.0 mg/kg / oral 3.0 mg/kg, read-out: Clearance rate CL): 1.66 mL/min/kg; Vd ([2]; intravenous 1.0 mg/kg / oral 3.0 mg/kg, read-out: Tissue distribution Vdss): 1.18 L/kg; bioavailability ([2]; intravenous 1.0 mg/kg, oral 3.0 mg/kg, read-out: Bioavailability F): 71.9%; Cmax ([2]; intravenous 1.0 mg/kg / oral 3.0 mg/kg, read-out: Peak concentration Cmax): 3100 ng/mL
CC(C)Oc1ncc(-c2nc(-c3cccc4c3CCC43CC(=O)N(CCO)C3)no2)cc1Br (centres unmarked) [Compound 3] | 62.8 | 4.46 | 
CC(C)Oc1ncc(-c2nsc(-c3cccc4c3CCC43CC(=O)N(CCO)C3)n2)cc1C#N (centres unmarked) [Compound 4] | 67.6 | 20.9 | 
CC(C)Oc1ncc(-c2ncc(-c3cccc4c3CCC43CC(=O)N(CCO)C3)o2)cc1C#N (centres unmarked) [Compound 5] | 63.5 | 24.3 | 
CC(C)Oc1ncc(-c2ncc(-c3cccc4c3CCC43CC(=O)N(CCO)C3)cn2)cc1C#N (centres unmarked) [Compound 6] | 78.5 | 7.1 | 
CC(C)Oc1ncc(-c2nc(-c3cccc4c3CCC43CC(=O)N(CCC(=O)O)C3)no2)cc1C#N (centres unmarked) [Compound 9] | 104 | 0.613 | 

Second part, led by results:

Emax (S1PR1) [%] | EC50 (S1PR1) [nM] | SMILES | further results
88.1 | 2.84 | CC(C)Oc1ncc(-c2ncc(-c3cccc4c3CCC43CC(=O)N(CCO)C3)s2)cc1C#N (centres unmarked) [Compound 7] | 
110 | 1.25 | CC(C)Oc1ncc(-c2nc(-c3cccc4c3CCC43CC(=O)N(CC(=O)O)C3)no2)cc1C#N (centres unmarked) [Compound 8] | 
92 | 0.474 | CC(C)Oc1ncc(-c2nc(-c3cccc4c3CCC43CCN(C4CC(C(=O)O)C4)C3)no2)cc1C#N (centres unmarked) [Compound 10] | 
104 | 6.12 | CC(C)Oc1ncc(-c2nnc(-c3cccc4c3CCC43CC(=O)N(CCO)C3)s2)cc1C#N (centres unmarked) [Compound 11] | 
